In test [1] the test system is HSV2 clinical isolates. The test is classed as cell-based, herpes simplex virus type 2. The protocol: (§1) Vero cells were seeded at 125,000 cells per well in 10% EMEM, and were incubated overnight resulting in confluent monolayers. Peptides were diluted in 0.5% EMEM to give 2× final desired concentration, and 100 μl aliquots were arranged on 96-well plates in arrangement to be used for 24-well plate; control wells containing normal 0.5% EMEM were also prepared. Virus stocks (p3) were thawed, and diluted in 0.5% EMEM such that there were around 100 pfu in 100 μl. Each 24-well plate was inoculated separately. Firstly 100 μl of virus stock was added to the peptide or control medium arranged on a 96-well plate. This was incubated at 37° C. for ten minutes before inoculation. Medium was removed from four wells of a 24-well plate containing confluent Vero, and the 200 μl inoculum added to the appropriate well. Once all wells were treated, the 24-well plate was incubated for a further 60-80 minutes. Finally the peptide-containing inoculum was removed, and 1 ml of 1% EMEM containing 1% carboxymethylcellulose was added to each well. Plates were incubated for a further 22 hours, before removal of overlay, and addition of 10% formaldehyde in PBS. After a further one hour incubation, fixative was removed, monolayers washed several times with tap water, and stained with carbol fuchsin solubilised in water. After 30 minutes stain was removed, and plates washed several times with tap water, before being air dried. Plaques were counted using an Olympus IX70 Inverting Microscope, and antiviral effect expressed as a percentage of the control value for each peptide concentration. The IC50 was calculated from plots of inhibitory effect against peptide concentration.
Plaque assays were performed. The methodology was as described in previous Examples for HSV1 plaque assays (including usage of Vero cells) except HSV2 clinical isolates (provided by Prof. Anthony Hart of Liverpool University) were employed instead.

In test [2] the test system is HSV1. The test is classed as cell-based, herpes simplex virus type 1. The following applies: HSV1 plaque assay, Vero cells. As to the method: African Green Monkey Kidney (Vero) cells were maintained in Eagle's minimum essential medium with Earle's salt (EMEM) and supplemented with 10% foetal calf serum (heat-inactivated), 4 mM L-glutamine, and 1% (v/v) nonessential amino acids, plus penicillin and streptomycin (100 IU/ml and 100 μg/ml, respectively) (maintenance medium referred to as 10% EMEM). The cells were incubated at 37° C. in a humidified atmosphere of air with 5% CO2.
On harvesting, monolayers were washed in phosphate-buffered saline (PBS), and dislodged by incubating with trypsin in PBS for 30 min, before inactivating trypsin by addition of an equal volume of 10% EMEM and centrifuging at 500 g (5 min, 4° C.). Cell pellets were resuspended in 10% EMEM, prior to cell counting and seeding of 24-well plates. For antiviral assays, medium containing only 0.5% FCS was used (referred to as 0.5% EMEM).
Three separate passages of HSV1 virus were prepared by infecting Vero cells, and preparing semi-pure suspensions of virus from tissue culture supernatant and cell lysates, before freezing aliquots of virus at −85° C. Viral infectivity was assessed by carrying out plaque assays on serial dilutions of thawed aliquots (expressed in pfu/ml).
Peptides were obtained in lyophilised form from a commercial supplier (AltaBioscience, University of Birmingham or Advanced Biomedical), and were produced at 5 micromole scale. N-terminals were protected by addition of an acetyl group, and the C-terminals were protected by addition of an amide group.
Small quantities of peptide were weighed in sterile Eppendorf tubes, before addition of sufficient 0.5% EMEM to produce a 1.5 mM stock solution, which was frozen at −20° C. in aliquots.
as §1
The methods employed were as described in Examples 1-4 expect peptides were prepared as 400 μM stocks in phosphate buffered saline (PBS).

The test system of test [3] is HIV isolate SF162. Briefly: HIV-1 infectious foci in NP2 glioma cells over-expressing CD4 and CCR5. The test is classed as cell-based. The following applies: HIV isolate SF162, NP-2 glioma cells overexpressing CCR5, 0.1 to 10 micromolar. The protocol: Similar experiments to those described in Example 2 were conducted to test the efficacy of the peptides according to the invention against HIV infection. The glioma cell line NP2 over-expressing both CD4 and the appropriate co-receptor (CCR5 or CXCR4) were maintained in DMEM supplemented with 10% FCS. 2×10^4 cells were plated per well of a 48-well plate 24 h prior to infection and grown at 37 C. The cells were then washed, and incubated in DMEM/FCS containing peptide concentrations ranging from 0.1 to 10 micromolar, at 37 C for 30 minutes. 200 focus-forming units of HIV-1 stocks were then added to each well, and the cells incubated at 37 C for a further 2 hours. The cells were then washed twice in PBS and fresh medium replaced. After 3 day's growth the cells were fixed in cold methanol:acetone, and stained in situ for expression of HIV-1 p24 using a monoclonal anti-p24 followed by a secondary anti-mouse beta-galactosidase conjugate. Expression was visualised by X-Gal staining and infectious foci enumerated by light-microscopy.

Take “Ac-WRWRKRWRKWRWRKRWRK-NH2 (N-terminus and C-terminus assumed) [GIN 33]”: half-maximal inhibition in test [1] (IC50) required 10 µM. The “antiviral activity against HSV1 (in words)” value in test [2] was “have antiviral activity”. Besides, the “anti-HIV action (in words)” value in test [3] is listed as “anti-HIV action”.

Usually IC50 stands for the point on the concentration scale where inhibition reaches its midpoint. The low end stands for greater potency in that assay, the high end for weaker potency in that assay.
